Results on 13 molecules are retold here after US4180669A, “2-(N-phenethyl-4-piperidino)-5-pentyl resorcinol” (Abbott Laboratories, priority 1978, dated 1979).

This experiment has as its system pylorous ligated rats. Kind of experiment: Antisecretory activity in the pylorous ligated rat model. The experiment is classed as in vivo, male Sprague-Dawley rats. Particulars: for inhibition in vivo at 12.5 mg/kg / inhibition in vivo at 25 mg/kg / inhibition in vivo at 50 mg/kg / inhibition in vivo at 100 mg/kg: Rattus norvegicus, 4 h; for inhibition in vivo at 12.5 mg/kg: oral dose 12.5 mg/kg. The procedure: To determine the antisecretory activity of the present compounds, the compounds were tested for such activity in pylorous ligated rats. In this test, male Sprague-Dawley rats weighing 170-190 g. were fasted for 24 hours. Water was allowed ad libitum. All groups were comprised of six rats. […] Water was withheld after drug administration. Ligation of the pyrloric sphincter was performed under ether anesthesia, and four hours after ligation the animals were sacrificed with CO2. The stomach was dissected out and the contents were expelled into a graduated centrifuge tube. The samples were centrifuged and the volume, less debris, was measured. Sample aliquots were titrated with 0.05 N NaOH to determine acid concentration. Pepsin activity was determined on an auto analyzer using hemoglobin as the substrate by the method of Anson. Group means for volume, acid and pepsin concentrations, and pepsin outputs were compared for statistically significant differences from control means by Student's t-test.

Setting [1] is: read-out: Percent inhibition of acid output.
Setting [2] is: read-out: Percent inhibition of acidity.
The mark [3] stands for this setting: read-out: Percent inhibition of volume.
Where [4] appears, read: oral dose 25 mg/kg, read-out: Percent inhibition of acid output.
Where [5] appears, read: oral dose 25 mg/kg, read-out: Percent inhibition of acidity.
[6] abbreviates: oral dose 25 mg/kg, read-out: Percent inhibition of volume.
The mark [7] stands for this setting: oral dose 50 mg/kg, read-out: Percent inhibition of acid output.
The mark [8] stands for this setting: oral dose 50 mg/kg, read-out: Percent inhibition of acidity.
[9] abbreviates: oral dose 50 mg/kg, read-out: Percent inhibition of volume.
Setting [10] is: oral dose 100 mg/kg, read-out: Percent inhibition of acid output.
The mark [11] stands for this setting: oral dose 100 mg/kg, read-out: Percent inhibition of acidity.
[12] abbreviates: oral dose 100 mg/kg, read-out: Percent inhibition of volume.
The mark [13] stands for this setting: oral dose 50 mg/kg, negative sign means stimulated, read-out: Percent inhibition of pepsin.
[14] abbreviates: oral dose 50 mg/kg, negative sign means stimulated, read-out: Percent inhibition of pepsin output.
Setting [15] is: negative sign means stimulated, read-out: Percent inhibition of pepsin.
[16] abbreviates: read-out: Percent inhibition of pepsin output.
The mark [17] stands for this setting: oral dose 25 mg/kg, negative sign means stimulated, read-out: Percent inhibition of pepsin.
The mark [18] stands for this setting: oral dose 25 mg/kg, read-out: Percent inhibition of pepsin output.
[19] abbreviates: oral dose 100 mg/kg, negative sign means stimulated, read-out: Percent inhibition of pepsin.
Setting [20] is: oral dose 100 mg/kg, read-out: Percent inhibition of pepsin output.
[21] abbreviates: oral dose 50 mg/kg, negative sign means stimulated.

Where a name gives a salt, the structure may show the parent alone. Read-outs that look alike come from different tables or passages of the source.

Consider `CCCCCC(C)C(C)c1cc(O)c(C2=CCN(CCc3ccccc3)CC2)c(O)c1` (stereo not shown) [Example XX, 2-(N-Phenethyl-1,2,3,6-tetrahydro-4-pyridyl)-5-(1,2-dimethylheptyl) resorcinol hydrochloride], for which the inhibition in vivo at 12.5 mg/kg worked out at 9.7% under setting [1], 8.5% under setting [2] and 2.6% under setting [3]. The inhibition in vivo at 25 mg/kg came to 17.1% under setting [4], 1.7% under setting [5] and 16.9% under setting [6]. Further, the inhibition in vivo at 50 mg/kg under setting [7] is 47.8%, the inhibition in vivo at 50 mg/kg under setting [8] amounted to 10.7% and the inhibition in vivo at 50 mg/kg under setting [9] came to 42.8%. For the same molecule, the inhibition in vivo at 100 mg/kg under setting [10] amounted to 51.2%, the inhibition in vivo at 100 mg/kg under setting [11] was determined as 19.5% and the inhibition in vivo at 100 mg/kg under setting [12] is 44.8%.

`CCCCCc1cc(O)c(C2CC3CCC(C2)N3C)c(O)c1` (stereo not shown) [XXIV, 2-(N-Methyl-2,6-ethylidene-4-piperidino)-5-pentyl resorcinol hydrochloride]: the inhibition in vivo at 50 mg/kg was 21% under setting [13]; 22.2% under setting [14]; 0.9% under setting [7]; -2.5% under setting [8]; 2.8% under setting [9].

Regarding `CC(C)c1cc(O)c(C2=CCN(Cc3ccccc3)CC2)c(O)c1` [Example XI, 2-(N-Benzyl-1,2,3,6-tetrahydro-4-pyridyl)-5-isopropyl resorcinol hydrochloride], the inhibition in vivo at 50 mg/kg runs as follows: under setting [13], -36%; under setting [14], 47.1%; under setting [7], 68.2%; under setting [8], 22.8%; under setting [9], 63.8%.

Consider `CCCCCC(C)C(C)c1cc(O)c(C2=CC3CCC(C2)N3C)c(O)c1` (stereo not shown) [Example XXV, 2-(N-Methyl-2,6-ethylidene-1,2,3,6-tetrahydro-4-pyridyl)-5-(1,2-dimethylheptyl) resorcinol hydrochloride], for which the inhibition in vivo at 50 mg/kg runs as follows: under setting [13], 1%; under setting [14], 11%; under setting [7], 29.4%; under setting [8], 21.2%; under setting [9], 9.7%.

Consider `CCCCCC(C)C(C)c1cc(O)c(C2=CCN(C)CC2)c(O)c1` (stereo not shown) [Example X, 2-(N-Methyl-1,2,3,6-tetrahydro-4-pyridyl)-5-(1,2-dimethylheptyl) resorcinol], for which the inhibition in vivo at 12.5 mg/kg under setting [15] stood at 23.4%; the inhibition in vivo at 12.5 mg/kg under setting [1] amounted to 10.8%; the inhibition in vivo at 12.5 mg/kg under setting [2] came to 13.1%; the inhibition in vivo at 12.5 mg/kg under setting [16] stood at 22.6%; the inhibition in vivo at 12.5 mg/kg under setting [3] was -2.8%. Also, the inhibition in vivo at 25 mg/kg by setting is: under setting [17], 45.1%; under setting [4], 22.9%; under setting [5], 20.9%; under setting [18], 46.4%; under setting [6], 1.4%. Also, the inhibition in vivo at 50 mg/kg is 41.5% under setting [13]; 48% under setting [14]; 69.3% under setting [7]; 66.8% under setting [8]; 7.7% under setting [9]. Also, the inhibition in vivo at 100 mg/kg runs as follows: under setting [19], 63%; under setting [10], 69%; under setting [11], 68.4%; under setting [20], 63.2%; under setting [12], 1.7%.

Regarding `CCCCCC(C)C(C)c1cc(O)c(C2CCN(CCc3ccccc3)CC2)c(O)c1` (stereo not shown) [Example XXII, 2-(N-phenethyl-4-piperidino)-5-(1,2-dimethylheptyl) resorcinol hydrochloride], the inhibition in vivo at 50 mg/kg under setting [13] was -7.1%; the inhibition in vivo at 50 mg/kg under setting [14] was 30.9%; the inhibition in vivo at 50 mg/kg under setting [7] came out at 37.6%; the inhibition in vivo at 50 mg/kg under setting [8] stood at 8.5%; the inhibition in vivo at 50 mg/kg under setting [9] turned out to be 37.3%.

Consider “2-(N-Propargyl-1,2,3,4-tetrahydro-4-pyridyl)-3-methoxy-5-(1,2-dimethylheptyl)phenol [XXIX]”, for which, for the setting “oral dose 25 mg/kg”, the “Percent inhibition of acid output” value amounted to 7.8%, the “Percent inhibition of acidity” value is reported as 18.6% and the “Percent inhibition of volume” value was -13.0%. Also, where the note is “oral dose 50 mg/kg”, the “Percent inhibition of acid output” value came to 45.6%, the “Percent inhibition of acidity” value is recorded as 50.6% and the “Percent inhibition of volume” value is -5.7%. Under setting [21], the “Percent inhibition of pepsin” value came to 21.0% and the “Percent inhibition of pepsin output” value is reported as 23.9%. Further, for the setting “oral dose 100 mg/kg”, the “Percent inhibition of acid output” value came to 49.5%, the “Percent inhibition of acidity” value stood at 58.1% and the “Percent inhibition of volume” value was -21.8%.

As for `CCCCCC(C)C(C)c1cc(O)c(C2=CCNCC2)c(O)c1` (stereo not shown) [Example XV, 2-(1,2,3,6-Tetrahydro-4-pyridyl)-5-(1,2-dimethylheptyl) resorcinol hydrochloride], the inhibition in vivo at 50 mg/kg under setting [13] was found to be 53.8%; the inhibition in vivo at 50 mg/kg under setting [14] came to 54.3%; the inhibition in vivo at 50 mg/kg under setting [7] was 22.8%; the inhibition in vivo at 50 mg/kg under setting [8] was determined as 24.3%; the inhibition in vivo at 50 mg/kg under setting [9] is -1.4%. Besides, the inhibition in vivo at 100 mg/kg was determined as 34.5% under setting [19]; 52.8% under setting [10]; 43.6% under setting [11]; 41.4% under setting [20]; 12.9% under setting [12].

On to `CCCCCc1cc(O)c(C2CCN(CCc3ccccc3)CC2)c(O)c1` [Example XXI, 2-(N-Phenethyl-4-piperidino)-5-pentyl resorcinol hydrochloride], for which the inhibition in vivo at 12.5 mg/kg was 11.4% under setting [15]; 0.5% under setting [1]; -4% under setting [2]; 19.9% under setting [16]; 6.5% under setting [3]. Besides, the inhibition in vivo at 25 mg/kg by setting is: under setting [17], 11.4%; under setting [4], 32.7%; under setting [5], 5.8%; under setting [18], 41.4%; under setting [6], 31.2%. For the same molecule, the inhibition in vivo at 50 mg/kg under setting [13] is -6.2%; the inhibition in vivo at 50 mg/kg under setting [14] came out at 56.4%; the inhibition in vivo at 50 mg/kg under setting [7] came to 64.1%; the inhibition in vivo at 50 mg/kg under setting [8] was 15%; the inhibition in vivo at 50 mg/kg under setting [9] stood at 58.2%. Also, the inhibition in vivo at 100 mg/kg was -12.7% under setting [19]; 66.6% under setting [10]; 16.1% under setting [11]; 60.6% under setting [20]; 61.8% under setting [12].

Regarding `CCCCCC(C)C(C)c1cc(O)c(C2=CCN(Cc3ccccc3)CC2)c(OC)c1` (stereo not shown) [Example XXVII, 2-(N-Benzyl-1,2,3,6-tetrahydro-4-pyridyl)-3-methoxy-5-(1,2-dimethylheptyl)phenol hydrochloride], the inhibition in vivo at 50 mg/kg was 12.1% under setting [13], -8.6% under setting [14], -27.8% under setting [7] and -5.6% under setting [8].

Consider `CC(C)C(C)c1cc(O)c(C2=CCN(C)CC2)c(O)c1` (stereo not shown) [Example VII, 2-(N-Methyl-1,2,3,6-tetrahydro-4-pyridyl)-5-(1,2-dimethylpropyl) resorcinol hydrochloride], for which the inhibition in vivo at 50 mg/kg reads like this: under setting [13], -24.6%; under setting [14], -9.9%; under setting [7], 15.8%; under setting [8], 7.1%; under setting [9], 9.5%.

In the case of `CCCCCc1cc(O)c(C2=CCN(C)CC2)c(O)c1` [Example VIII, 2-(N-Methyl-1,2,3,6-tetrahydro-4-pyridyl)-5-pentyl resorcinol hydrochloride], the inhibition in vivo at 50 mg/kg under setting [13] was -2%; the inhibition in vivo at 50 mg/kg under setting [14] is 55.9%; the inhibition in vivo at 50 mg/kg under setting [7] was determined as 74.4%; the inhibition in vivo at 50 mg/kg under setting [8] was 41.5%; the inhibition in vivo at 50 mg/kg under setting [9] was 57.4%.

For `CCCCCc1cc(O)c(C2CCN(C)CC2)c(O)c1` [XVIII, 2-(N-Methyl-4-piperidino)-5-pentyl resorcinol hydrochloride], the inhibition in vivo at 50 mg/kg runs as follows: under setting [13], 5.6%; under setting [14], 1.4%; under setting [7], 4.5%; under setting [8], 8.2%; under setting [9], -5.2%.
